We go through three molecules from publication PMC6613030, “LC-ESI-MS/MS Phenolic Profile of Volutaria lippii (L.) Cass. Extracts and Evaluation of Their In Vitro Antioxidant, Antiacetylcholinesterase, Antidiabetic, and Antibacterial Activities” (Evidence-based Complementary and Alternative Medicine : eCAM, 2019).

Usually inhibition stands for how much of the control response was suppressed.

One assay has as its system Bacillus thuringiensis. Briefly: Antibacterial activity, agar disc diffusion. Format: cell-based. Conditions: 10 μg / disc, positive control. As for the experimental part:
(§1) The V. lippii fractions were assessed against a five bacterial strains: Gram-negative: Salmonella enterica (CIP 8039) and Escherichia coli (ATCC 8739), Gram-positive: Staphylococcus aureus (ATCC 6538), Bacillus thuringiensis, and Enterococcus faecalis (ATCC 29212). Bacteria not obtained from an ATCC collection were acquired from the Microbiology Department, Faculty of Science, University of Sfax (Tunisia). Bacterial strains were cultured in Mueller-Hinton agar (MHA) for 24 h at 37°C.
(§2) The disc diffusion method was employed for the determination of antibacterial activities of V. lippii fractions according to the method described by Berghe and Vlietinck. Antibacterial activities were evaluated by measuring the diameters of the inhibition zones against the test organisms and compared to penicillin (10 μg per disk) as the positive control. Tests were carried out in triplicate.

In assay [1] the test system is Enterococcus faecalis (ATCC 29212). Briefly: Antibacterial activity, agar disc diffusion. Format: cell-based. Conditions: 10 μg / disc, positive control. As for the experimental part:
as §1, §2
Background: Agar diffusion results depend on both activity and mobility in agar.

Assay [2] concerns Escherichia coli (ATCC 8739). Briefly: Antibacterial activity, agar disc diffusion. Format: cell-based. Conditions: 10 μg / disc, positive control. As for the experimental part: as §1, §2
Assay [3] relates to Staphylococcus aureus (ATCC 6538). Briefly: Antibacterial activity, agar disc diffusion. Format: cell-based. The settings on record: 10 μg / disc, positive control. As for the experimental part: as §1, §2
Assay [4] is described as follows: DPPH radical scavenging assay. The settings on record: 30 min in the dark, absorbance at 517 nm. Background: The DPPH test is a chemical assay of radical scavenging.
Protocol: The DPPH radical scavenging activity of different fractions of V. lippii was evaluated following the procedure described by Les et al. [14]. […] The final concentrations in the reaction's mixture were 0.005-0.5 mg/mL. Each mixture was shaken and allowed in the dark for 30 min at room temperature. The blank was prepared as above without any extract and the BHT was used as positive control. […] The PI was calculated using the following equation:(1) PI%=Ablank – Asample/Ablank×100 where Ablank is the absorbance of the blank and Asample is the absorbance of the test sample.
The calibration curve for scavenging percentage against extract concentration was plotted and the IC50 (half maximal inhibitory concentration) value of each sample was established.
Assay [5] in a line: Reducing power assay (FRAP). Conditions: effective concentration at which the absorbance is 0.5 (700 nm). As for the experimental part: The reducing power of all fractions was evaluated using the procedure of Yildirim et al., and BHT was used as positive control. A 1 mL of different concentrations of each V. lippii sample (5, 10, 25, 50,100 μg/mL) was mixed with 2.5 mL of 1% potassium ferricyanide and 2.5 mL of sodium phosphate buffer (0.2 M, pH= 6.6). The mixture was incubated for 20 min at 50°C and then 2.5 mL of 10% trichloroacetic acid were added and centrifuged for 10 minutes. 2.5 mL of the supernatant were mixed with 0.5 mL of ferric chloride solution (0.1%) and 2.5 mL of distilled water. The absorbance of the mixture was measured at 700 nm.

The next assay addresses T1, pancreatic α-amylase (Sus scrofa, UniProt P00690).
T1 construct: purchased Merck (Sigma-Aldrich, Steinheim, Germany)
T1 sequence (P00690 16-511): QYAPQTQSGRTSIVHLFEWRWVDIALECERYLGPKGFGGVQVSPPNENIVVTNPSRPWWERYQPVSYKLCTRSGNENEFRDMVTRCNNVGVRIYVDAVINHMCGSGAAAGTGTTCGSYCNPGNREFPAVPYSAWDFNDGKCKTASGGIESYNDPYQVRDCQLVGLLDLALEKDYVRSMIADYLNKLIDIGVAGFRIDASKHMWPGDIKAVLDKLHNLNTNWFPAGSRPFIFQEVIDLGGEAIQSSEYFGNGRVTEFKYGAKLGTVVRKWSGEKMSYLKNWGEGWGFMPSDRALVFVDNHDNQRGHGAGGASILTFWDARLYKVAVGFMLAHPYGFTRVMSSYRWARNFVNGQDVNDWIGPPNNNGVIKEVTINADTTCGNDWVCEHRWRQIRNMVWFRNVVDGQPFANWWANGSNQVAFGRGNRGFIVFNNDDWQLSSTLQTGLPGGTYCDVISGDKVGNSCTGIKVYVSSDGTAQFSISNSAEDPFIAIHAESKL
As to the kind of experiment: biochemical. The procedure: The in vitroα-amylase inhibitory assay of all fractions was performed by the previous method described by Gella et al.. […] Percentage inhibition (PI) was calculated by the following expression:(3) PI%=Acontrol – Asample/Acontrol×100 where Acontrol is the absorbance of the control and Asample is the absorbance of the test sample.

Marks after values point to notes of the source that are not given here.

As for penicillin, the “Inhibition zone in diameter” value in the assay with Bacillus thuringiensis is 18.0±0.4^d mm; in assay [1], 16.0±0.2^c mm; in assay [2] it was 16.3±0.1^d mm; in assay [3], 14.1±0.5^c mm.
In the case of `Cc1cc(C(C)(C)C)c(O)c(C(C)(C)C)c1` [BHT, butylated hydroxytoluene], the “DPPH IC50” value in assay [4] is 13.00±0.57^a μg/mL. The “Reducing power EC50” value in assay [5] is recorded as 43.35±0.95^a μg/mL.
On to `C[C@H]1O[C@H](O[C@H]2[C@H](O)[C@@H](O)[C@@H](O[C@H]3[C@H](O)[C@@H](O)C(O)O[C@@H]3CO)O[C@@H]2CO)[C@H](O)[C@@H](O)[C@@H]1N[C@H]1C=C(CO)[C@@H](O)[C@H](O)[C@H]1O` (stereo partly drawn) [Acarbose, acarbose], for which, at pancreatic α-amylase (concentration 2.85 μg/mL), 2.85 µg/mL produced 29.8 ± 0.07% inhibition. At pancreatic α-amylase (concentration 5.71 μg/mL), this molecule came in with an inhibition at 5.71 µg/mL of 51.52 ± 0.02%. At 11.42 µg/mL the inhibition on pancreatic α-amylase (concentration 11.42 μg/mL) was 86.62 ± 0.04%.
